Measurements published in ChEMBL document CHEMBL5625175, “Quinazoline-based VEGFR-2 inhibitors as potential anti-angiogenic agents: A contemporary perspective of SAR and molecular docking studies” (Eur J Med Chem, 2023).

Assays:
[1] = system: MCF7; assay: Antitumor activity against human MCF7 cells assessed as reduction in cell growth incubated for 48 hrs by MTT assay; assay type: functional, cell-based; details: MCF7, 48 h
[2] = system: PC-3; assay: Antitumor activity against human PC-3 cells assessed as reduction in cell growth incubated for 48 hrs by MTT assay; assay type: functional, cell-based; details: PC-3, 48 h
[3] = system: HepG2; assay: Antitumor activity against human HepG2 cells assessed as reduction in cell growth incubated for 48 hrs by MTT assay; assay type: functional, cell-based; details: HepG2, 48 h
[4] = molecular target: Vascular endothelial growth factor receptor 1 (Homo sapiens, UniProt P17948); assay: Inhibition of VEGFR1 (unknown origin) by FRET based Z-LYTE kinase assay
Vascular endothelial growth factor receptor 1, sequence (P17948 whole entry): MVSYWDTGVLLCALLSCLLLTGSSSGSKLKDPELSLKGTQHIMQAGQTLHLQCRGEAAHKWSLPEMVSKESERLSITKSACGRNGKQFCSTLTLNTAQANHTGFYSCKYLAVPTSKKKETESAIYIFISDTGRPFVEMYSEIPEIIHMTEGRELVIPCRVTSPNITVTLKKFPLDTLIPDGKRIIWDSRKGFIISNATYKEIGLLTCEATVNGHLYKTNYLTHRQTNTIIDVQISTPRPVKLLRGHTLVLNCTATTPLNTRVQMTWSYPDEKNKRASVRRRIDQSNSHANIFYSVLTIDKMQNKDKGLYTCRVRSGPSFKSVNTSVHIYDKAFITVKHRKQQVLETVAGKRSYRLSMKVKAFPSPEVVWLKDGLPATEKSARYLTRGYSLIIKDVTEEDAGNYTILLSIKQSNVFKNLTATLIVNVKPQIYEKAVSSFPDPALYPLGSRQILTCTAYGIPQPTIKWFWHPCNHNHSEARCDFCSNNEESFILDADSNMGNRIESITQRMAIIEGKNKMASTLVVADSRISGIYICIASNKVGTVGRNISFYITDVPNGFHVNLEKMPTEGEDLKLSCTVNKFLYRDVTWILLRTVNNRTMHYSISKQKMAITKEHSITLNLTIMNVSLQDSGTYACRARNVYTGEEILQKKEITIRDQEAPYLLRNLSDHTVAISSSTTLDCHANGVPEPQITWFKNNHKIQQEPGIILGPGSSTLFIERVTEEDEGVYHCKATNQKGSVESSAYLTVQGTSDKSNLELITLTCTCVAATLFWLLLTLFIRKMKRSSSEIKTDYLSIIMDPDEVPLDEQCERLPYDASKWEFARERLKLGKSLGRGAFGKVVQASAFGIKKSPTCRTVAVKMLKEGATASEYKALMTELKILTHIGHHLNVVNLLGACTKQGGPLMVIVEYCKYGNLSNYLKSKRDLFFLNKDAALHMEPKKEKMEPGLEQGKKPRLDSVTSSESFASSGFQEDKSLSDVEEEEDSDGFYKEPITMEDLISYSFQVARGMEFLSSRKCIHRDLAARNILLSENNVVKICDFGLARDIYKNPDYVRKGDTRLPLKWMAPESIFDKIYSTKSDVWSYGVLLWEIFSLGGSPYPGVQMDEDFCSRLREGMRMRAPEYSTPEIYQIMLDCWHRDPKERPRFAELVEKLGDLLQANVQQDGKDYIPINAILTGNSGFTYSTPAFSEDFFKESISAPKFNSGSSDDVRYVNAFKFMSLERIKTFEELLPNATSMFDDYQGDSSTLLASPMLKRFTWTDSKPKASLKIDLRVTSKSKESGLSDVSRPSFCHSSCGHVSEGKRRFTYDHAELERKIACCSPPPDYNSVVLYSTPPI

[5] = system: HepG2; assay: Antitumor activity against human HepG2 cells xenografted in athymic nu/nu mouse assessed as tumor growth inhibition at 100 mg/kg, ip administered once daily relative to control; assay type: functional; parameters: scale not given: the % may be the effect or the level left
[6] = molecular target: T1, Vascular endothelial growth factor receptor 2 (Homo sapiens, UniProt P35968); assay: Inhibition of VEGF-induced human VEGFR2 autophosphorylation expressed in HUVEC cells measured after 2 hrs by chemiluminescence assay; assay type: cell-based
T1 sequence (P35968 whole entry): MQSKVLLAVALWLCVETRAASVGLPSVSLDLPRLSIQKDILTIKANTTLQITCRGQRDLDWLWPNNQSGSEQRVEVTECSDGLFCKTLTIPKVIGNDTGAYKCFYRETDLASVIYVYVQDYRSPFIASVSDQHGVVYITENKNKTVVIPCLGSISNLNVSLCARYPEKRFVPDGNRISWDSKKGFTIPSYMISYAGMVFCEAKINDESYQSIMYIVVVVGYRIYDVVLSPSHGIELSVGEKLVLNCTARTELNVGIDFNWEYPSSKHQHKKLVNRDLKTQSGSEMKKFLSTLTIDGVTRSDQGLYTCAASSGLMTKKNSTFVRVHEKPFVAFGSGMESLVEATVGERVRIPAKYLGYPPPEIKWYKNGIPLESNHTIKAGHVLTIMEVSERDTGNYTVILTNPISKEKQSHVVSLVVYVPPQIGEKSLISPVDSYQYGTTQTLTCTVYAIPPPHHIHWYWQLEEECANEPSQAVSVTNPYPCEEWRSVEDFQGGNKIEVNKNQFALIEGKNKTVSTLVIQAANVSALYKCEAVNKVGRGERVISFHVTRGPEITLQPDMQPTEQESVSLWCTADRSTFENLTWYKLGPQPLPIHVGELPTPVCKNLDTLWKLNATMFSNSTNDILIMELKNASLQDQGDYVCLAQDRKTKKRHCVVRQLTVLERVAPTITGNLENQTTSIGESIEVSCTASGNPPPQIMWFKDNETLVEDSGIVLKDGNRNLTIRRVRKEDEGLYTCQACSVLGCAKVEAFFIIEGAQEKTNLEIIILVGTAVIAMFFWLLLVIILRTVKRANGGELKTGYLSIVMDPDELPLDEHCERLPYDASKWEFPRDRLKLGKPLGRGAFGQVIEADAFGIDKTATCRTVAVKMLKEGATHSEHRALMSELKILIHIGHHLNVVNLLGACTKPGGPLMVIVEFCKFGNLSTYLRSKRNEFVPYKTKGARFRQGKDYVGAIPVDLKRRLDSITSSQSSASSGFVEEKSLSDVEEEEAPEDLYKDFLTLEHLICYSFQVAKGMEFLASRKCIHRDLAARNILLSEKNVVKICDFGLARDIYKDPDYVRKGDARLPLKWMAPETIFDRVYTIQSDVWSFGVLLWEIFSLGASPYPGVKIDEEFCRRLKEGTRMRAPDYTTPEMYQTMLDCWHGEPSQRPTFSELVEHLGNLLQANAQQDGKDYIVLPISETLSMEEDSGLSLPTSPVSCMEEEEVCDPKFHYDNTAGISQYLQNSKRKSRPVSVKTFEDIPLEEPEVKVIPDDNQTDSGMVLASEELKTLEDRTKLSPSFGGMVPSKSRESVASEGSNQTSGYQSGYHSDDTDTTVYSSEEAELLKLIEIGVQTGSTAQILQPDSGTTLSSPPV

[7] = molecular target: Receptor-type tyrosine-protein kinase FLT3 (Homo sapiens) (UniProt P36888); assay: Inhibition of FLT-3 (unknown origin) at 10 uM relative to control
Receptor-type tyrosine-protein kinase FLT3 (Homo sapiens), sequence (P36888 whole entry): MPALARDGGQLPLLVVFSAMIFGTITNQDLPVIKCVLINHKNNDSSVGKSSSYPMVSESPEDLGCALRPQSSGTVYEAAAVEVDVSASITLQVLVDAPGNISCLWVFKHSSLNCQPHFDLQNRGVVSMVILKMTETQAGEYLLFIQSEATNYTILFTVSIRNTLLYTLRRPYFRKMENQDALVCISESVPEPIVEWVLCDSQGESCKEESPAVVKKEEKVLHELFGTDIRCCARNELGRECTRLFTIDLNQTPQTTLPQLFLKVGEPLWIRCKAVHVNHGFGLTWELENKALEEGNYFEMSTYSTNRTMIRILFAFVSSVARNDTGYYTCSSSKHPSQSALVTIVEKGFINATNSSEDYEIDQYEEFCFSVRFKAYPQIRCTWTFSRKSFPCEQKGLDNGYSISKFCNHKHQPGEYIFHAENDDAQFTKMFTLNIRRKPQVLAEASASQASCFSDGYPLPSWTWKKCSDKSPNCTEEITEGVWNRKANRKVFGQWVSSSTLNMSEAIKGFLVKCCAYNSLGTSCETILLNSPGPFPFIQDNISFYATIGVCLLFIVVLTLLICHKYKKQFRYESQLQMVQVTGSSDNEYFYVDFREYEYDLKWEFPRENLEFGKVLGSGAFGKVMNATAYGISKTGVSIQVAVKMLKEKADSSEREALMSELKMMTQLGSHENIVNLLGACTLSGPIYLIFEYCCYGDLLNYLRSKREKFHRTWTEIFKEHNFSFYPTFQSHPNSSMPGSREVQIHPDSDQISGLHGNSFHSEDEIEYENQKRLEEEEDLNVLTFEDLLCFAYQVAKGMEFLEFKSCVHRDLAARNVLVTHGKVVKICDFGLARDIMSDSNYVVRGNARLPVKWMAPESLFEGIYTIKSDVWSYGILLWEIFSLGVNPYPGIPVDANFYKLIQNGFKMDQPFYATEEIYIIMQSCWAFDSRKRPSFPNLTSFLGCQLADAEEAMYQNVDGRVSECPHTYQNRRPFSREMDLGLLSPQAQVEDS

[8] = molecular target: T1, Vascular endothelial growth factor receptor 2; assay: Inhibition of VEGFR-2 (unknown origin) using poly-Glu-Ala-Tyr-biotin as substrate pre-incubated for 10 mins followed by substrate addition and measured after 30 mins by HTRF method

What does the source list for `O=C(Nc1ccc(Oc2nc(Cl)nc3ccccc23)cc1)c1cccnc1`?
IC50 [1]: 33.4 µM; IC50 [2]: 40.9 µM; IC50 [3]: 24.1 µM

`CNC(=O)c1nc(Nc2ccc(NC(=O)Nc3cccc(C)c3)cc2)c2ccccc2n1` was tested. Which IC50 [4] did it give?
The IC50 was 0.0121 µM.

For `COc1cc2ncnc(Sc3nnc(C)s3)c2cc1OC`, which Activity [5] is on record?
The Activity was 60%.

What about the IC50 [6] of the same compound?
Its IC50 is 11.9 µM.

And the inhibition [7]?
The inhibition was 91%.

With `COc1cc2ncnc(Nc3ccncc3C(=O)NCc3cccs3)c2cc1OC` as the compound, how does the IC50 [8] read?
Its IC50 is 0.017 µM.
